# Reference: PubChem BioAssay AID1963833 (Molecular Pharmacology Branch, DTP, NCI, 2024)
# Test system: 883617-216-R-J1-PDC complex spheroid viability
# Test: Anticancer human tumor 883617-216-R-J1-PDC patient-derived bladder carcinoma cell line growth inhibition [POLQ]
# Conditions: for IC50: curve of first compound; for viability, T/C: stronger effect = lower value
# Summary of the method: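 Growth inhibition in 3D: complex spheroids (tumor PDC, HUVEC, MSC) treated with POLQ inhibitor combinations; where Cmax unknown, highest tested concentration 10 microM, except SN-38 at 1 microM.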
# [1] = second compound 0.0316 µM, first compound 0.0316 µM
# [2] = second compound 0.0316 µM, first compound 0.1 µM
# [3] = second compound 0.0316 µM, first compound 0.316 µM
# [4] = second compound 0.0316 µM, first compound 1 µM
# [5] = second compound 0.1 µM, first compound 0.0316 µM
# [6] = second compound 0.1 µM, first compound 0.1 µM
# [7] = second compound 0.1 µM, first compound 0.316 µM
# [8] = second compound 0.1 µM, first compound 1 µM
# [9] = second compound 0.316 µM, first compound 0.0316 µM
# [10] = second compound 0.316 µM, first compound 0.1 µM
# [11] = second compound 0.316 µM, first compound 0.316 µM
# [12] = second compound 0.316 µM, first compound 1 µM
# [13] = second compound 1 µM, first compound 0.0316 µM
# [14] = second compound 1 µM, first compound 0.1 µM
# [15] = second compound 1 µM, first compound 0.316 µM
# [16] = second compound 1 µM, first compound 1 µM
# [17] = second compound 3.16 µM, first compound 0.0316 µM
# [18] = second compound 3.16 µM, first compound 0.1 µM
# [19] = second compound 3.16 µM, first compound 0.316 µM
# [20] = second compound 3.16 µM, first compound 1 µM
# [21] = second compound 10 µM, first compound 0.0316 µM
# [22] = second compound 10 µM, first compound 0.1 µM
# [23] = second compound 10 µM, first compound 0.316 µM
# [24] = second compound 10 µM, first compound 1 µM
# [25] = second compound 0.0316 µM, first compound 0.00316 µM
# [26] = second compound 0.0316 µM, first compound 0.01 µM
# [27] = second compound 0.1 µM, first compound 0.00316 µM
# [28] = second compound 0.1 µM, first compound 0.01 µM
# [29] = second compound 0.316 µM, first compound 0.00316 µM
# [30] = second compound 0.316 µM, first compound 0.01 µM
# [31] = second compound 1 µM, first compound 0.00316 µM
# [32] = second compound 1 µM, first compound 0.01 µM
# [33] = second compound 3.16 µM, first compound 0.00316 µM
# [34] = second compound 3.16 µM, first compound 0.01 µM
# [35] = second compound 10 µM, first compound 0.00316 µM
# [36] = second compound 10 µM, first compound 0.01 µM
# 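Further: spheroids exposed to compounds for seven days before readout.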
# 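Wherever viability, T/C is given: 100% = DMSO vehicle control viability.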
structure (smiles),measurement,setting,value
COc1ccc([C@@H](O)c2cc(-c3ncnc4cc(N5CCOCC5)ccc34)c(F)cc2Cl)nn1 + Nc1ccc(C#CCN(C(=O)Cc2ncc(C(F)(F)F)cc2C(F)(F)F)c2ccc(F)cc2)nn1,IC50,second compound 0.0316 µM,2810 nM
same,IC50,second compound 0.1 µM,2800 nM
same,IC50,second compound 0.316 µM,2660 nM
same,IC50,second compound 1 µM,3410 nM
same,IC50,second compound 3.16 µM,2870 nM
same,IC50,second compound 10 µM,2500 nM
same,"viability, T/C",[1],104%
same,"viability, T/C",[2],92.5%
same,"viability, T/C",[3],90.1%
same,"viability, T/C",[4],66.7%
same,"viability, T/C","second compound 0.0316 µM, first compound 3.16 µM",48%
same,"viability, T/C","second compound 0.0316 µM, first compound 10 µM",36.6%
same,"viability, T/C",[5],75.6%
same,"viability, T/C",[6],97.9%
same,"viability, T/C",[7],84.6%
same,"viability, T/C",[8],63.2%
same,"viability, T/C","second compound 0.1 µM, first compound 3.16 µM",51.9%
same,"viability, T/C","second compound 0.1 µM, first compound 10 µM",33.1%
same,"viability, T/C",[9],108%
same,"viability, T/C",[10],99.7%
same,"viability, T/C",[11],84.3%
same,"viability, T/C",[12],62.8%
same,"viability, T/C","second compound 0.316 µM, first compound 3.16 µM",49.8%
same,"viability, T/C","second compound 0.316 µM, first compound 10 µM",31.4%
same,"viability, T/C",[13],94.8%
same,"viability, T/C",[14],89.3%
same,"viability, T/C",[15],77.9%
same,"viability, T/C",[16],68.2%
same,"viability, T/C","second compound 1 µM, first compound 3.16 µM",50%
same,"viability, T/C","second compound 1 µM, first compound 10 µM",35.9%
same,"viability, T/C",[17],96.3%
same,"viability, T/C",[18],102%
same,"viability, T/C",[19],90.8%
same,"viability, T/C",[20],68.3%
same,"viability, T/C","second compound 3.16 µM, first compound 3.16 µM",50.6%
same,"viability, T/C","second compound 3.16 µM, first compound 10 µM",37.1%
same,"viability, T/C",[21],108%
same,"viability, T/C",[22],103%
same,"viability, T/C",[23],101%
same,"viability, T/C",[24],75.5%
same,"viability, T/C","second compound 10 µM, first compound 3.16 µM",43.6%
same,"viability, T/C","second compound 10 µM, first compound 10 µM",32.6%
COc1cccc(OCCCN)c1-c1cc(Nc2cnc(C#N)cn2)n[nH]1 + Nc1ccc(C#CCN(C(=O)Cc2ncc(C(F)(F)F)cc2C(F)(F)F)c2ccc(F)cc2)nn1,IC50,second compound 0.0316 µM,77.4 nM
same,IC50,second compound 0.1 µM,47.2 nM
same,IC50,second compound 0.316 µM,87.1 nM
same,IC50,second compound 1 µM,120 nM
same,IC50,second compound 3.16 µM,73.3 nM
same,IC50,second compound 10 µM,85.6 nM
same,"viability, T/C",[25],111%
same,"viability, T/C",[26],77%
same,"viability, T/C",[1],67%
same,"viability, T/C",[2],42.8%
same,"viability, T/C",[3],37.7%
same,"viability, T/C",[4],35.4%
same,"viability, T/C",[27],96.9%
same,"viability, T/C",[28],95.6%
same,"viability, T/C",[5],55.2%
same,"viability, T/C",[6],43.6%
same,"viability, T/C",[7],41.4%
same,"viability, T/C",[8],33.7%
same,"viability, T/C",[29],99.3%
same,"viability, T/C",[30],91.3%
same,"viability, T/C",[9],57.4%
same,"viability, T/C",[10],52.6%
same,"viability, T/C",[11],40.8%
same,"viability, T/C",[12],31.9%
same,"viability, T/C",[31],95.3%
same,"viability, T/C",[32],78.2%
same,"viability, T/C",[13],64.8%
same,"viability, T/C",[14],53%
same,"viability, T/C",[15],40%
same,"viability, T/C",[16],28.6%
same,"viability, T/C",[33],85.9%
same,"viability, T/C",[34],89.8%
same,"viability, T/C",[17],67.1%
same,"viability, T/C",[18],39.5%
same,"viability, T/C",[19],47.1%
same,"viability, T/C",[20],44.5%
same,"viability, T/C",[35],109%
same,"viability, T/C",[36],89.8%
same,"viability, T/C",[21],63.6%
same,"viability, T/C",[22],48.8%
same,"viability, T/C",[23],39.5%
same,"viability, T/C",[24],36.2%
Cn1ncnc1[C@H]1c2n[nH]c(=O)c3cc(F)cc(c23)N[C@@H]1c1ccc(F)cc1 + Nc1ccc(C#CCN(C(=O)Cc2ncc(C(F)(F)F)cc2C(F)(F)F)c2ccc(F)cc2)nn1,IC50,second compound 0.0316 µM,> 100 nM
same,IC50,second compound 0.1 µM,> 100 nM
same,IC50,second compound 0.316 µM,> 100 nM
same,IC50,second compound 1 µM,> 100 nM
same,IC50,second compound 3.16 µM,> 100 nM
same,IC50,second compound 10 µM,> 100 nM
same,"viability, T/C","second compound 0.0316 µM, first compound 0.000316 µM",87.9%
same,"viability, T/C","second compound 0.0316 µM, first compound 0.001 µM",94.4%
same,"viability, T/C",[25],99.1%
same,"viability, T/C",[26],82.4%
same,"viability, T/C",[1],72%
same,"viability, T/C",[2],78.9%
same,"viability, T/C","second compound 0.1 µM, first compound 0.000316 µM",93.8%
same,"viability, T/C","second compound 0.1 µM, first compound 0.001 µM",97.5%
same,"viability, T/C",[27],97.7%
same,"viability, T/C",[28],79.7%
same,"viability, T/C",[5],85.4%
same,"viability, T/C",[6],80.7%
same,"viability, T/C","second compound 0.316 µM, first compound 0.000316 µM",82.9%
same,"viability, T/C","second compound 0.316 µM, first compound 0.001 µM",111%
same,"viability, T/C",[29],91.9%
same,"viability, T/C",[30],87.9%
same,"viability, T/C",[9],83%
same,"viability, T/C",[10],77.5%
same,"viability, T/C","second compound 1 µM, first compound 0.000316 µM",91.9%
same,"viability, T/C","second compound 1 µM, first compound 0.001 µM",94.4%
same,"viability, T/C",[31],104%
same,"viability, T/C",[32],93.1%
same,"viability, T/C",[13],84.5%
same,"viability, T/C",[14],81.8%
same,"viability, T/C","second compound 3.16 µM, first compound 0.000316 µM",101%
same,"viability, T/C","second compound 3.16 µM, first compound 0.001 µM",112%
same,"viability, T/C",[33],90.2%
same,"viability, T/C",[34],109%
same,"viability, T/C",[17],86%
same,"viability, T/C",[18],67.8%
same,"viability, T/C","second compound 10 µM, first compound 0.000316 µM",100%
same,"viability, T/C","second compound 10 µM, first compound 0.001 µM",102%
same,"viability, T/C",[35],102%
same,"viability, T/C",[36],95.8%
same,"viability, T/C",[21],118%
same,"viability, T/C",[22],92.2%
